In US9187472B2 (AbbVie Inc., priority 2012, dated 2015):
pIC50: −log10 of the molar value.

Assays:
PC3 cells = test: NAMPT Cell Proliferation Assay; type: cell-based; conditions: Homo sapiens, PC-3, 120 h, 5 days incubation, cell viability by Cell Titer Glo
Outline: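 IC50 values derive from sigmoidal dose-response fits of percent inhibition of PC3 viability, measured by luminescence after 5 days of compound treatment. Cells (500/well, RPMI containing 10% heat-inactivated FBS) are allowed to attach overnight, and compounds are tested at 10-fold dilutions between 10 μM and 1×10^−5 μM.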

NAMPT = NAMPT (Homo sapiens, UniProt P43490); test: TR-FRET Binding Assay of NAMPT with PRPP; conditions: with 200 μM PRPP and 2.5 mM ATP; 2 nM NAMPT, 2 nM probe, 16 hours equilibration
Outline: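 NAMPT 2 nM + probe 2 nM + Tb-anti-His Ab 1 nM; PRPP 200 μM, ATP 2.5 mM, DMSO 2%; 16 h equilibration before TR-FRET read.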

[1] = target: NAMPT (human, recombinant, C-terminally His-tagged) (Homo sapiens, UniProt P43490); test: Time-Resolved Fluorescence Resonance Energy Transfer (TR-FRET) Binding Assay of NAMPT; conditions: without substrates; 6.8 nM NAMPT, 200 nM probe, 3 hours equilibration
Outline: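 Read-out is the time-resolved FRET ratio Em520/Em495 (excitation 337 nm) between a terbium anti-His antibody (1 nM) on the enzyme and an Oregon Green 488-labelled nicotinamide-competitive inhibitor probe (200 nM). Enzyme was 6.8 nM, DMSO 2%, pH 7.5 HEPES buffer; 3 h room-temperature equilibration preceded reading.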

NAMPT, sequence (P43490 whole entry): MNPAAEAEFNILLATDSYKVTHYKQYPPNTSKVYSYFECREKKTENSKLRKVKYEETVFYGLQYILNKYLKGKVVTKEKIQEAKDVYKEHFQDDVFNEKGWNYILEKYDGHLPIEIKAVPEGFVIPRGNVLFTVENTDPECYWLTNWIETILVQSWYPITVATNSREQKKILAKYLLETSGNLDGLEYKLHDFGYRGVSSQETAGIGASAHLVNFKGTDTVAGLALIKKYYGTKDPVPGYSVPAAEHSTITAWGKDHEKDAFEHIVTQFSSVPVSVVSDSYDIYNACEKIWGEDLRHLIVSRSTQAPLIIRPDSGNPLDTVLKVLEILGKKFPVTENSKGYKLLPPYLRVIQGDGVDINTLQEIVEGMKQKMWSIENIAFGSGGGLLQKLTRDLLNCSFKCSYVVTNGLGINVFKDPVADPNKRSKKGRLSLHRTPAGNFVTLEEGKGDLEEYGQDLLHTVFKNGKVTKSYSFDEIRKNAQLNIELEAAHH
NAMPT (human, recombinant, C-terminally His-tagged), sequence (P43490 whole entry): as above

Row | Structure (SMILES) | pIC50 (PC3 cells) | pIC50 (NAMPT) | pIC50 [1]
1 | O=C(NCc1ccn2ccnc2c1)c1ccc(C2CN(C(=O)c3cncs3)C2)cc1 [Example 634, N-(imidazo[1,2-a]pyridin-7-ylmethyl)-4-[1-(1,3-thiazol-5-ylcarbonyl)azetidin-3-yl]benzamide] | 7.08 | 9.19 | 6.45
2 | O=C(NCc1ccn2ccnc2c1)c1ccc(C2CN(C(=O)c3cnccn3)C2)cc1 [Example 635, N-(imidazo[1,2-a]pyridin-7-ylmethyl)-4-[1-(pyrazin-2-ylcarbonyl)azetidin-3-yl]benzamide] | 7.30 | 9.01 | 6.34
3 | COc1ccccc1C(=O)N1CC(c2ccc(C(=O)NCc3ccn4ccnc4c3)cc2)C1 [Example 636, N-(imidazo[1,2-a]pyridin-7-ylmethyl)-4-[1-(2-methoxybenzoyl)azetidin-3-yl]benzamide] | 7.74 | 9.04 | 6.62
4 | O=C(NCc1ccn2ccnc2c1)c1ccc(C2CN(C(=O)c3cscn3)C2)cc1 [Example 637, N-(imidazo[1,2-a]pyridin-7-ylmethyl)-4-[1-(1,3-thiazol-4-ylcarbonyl)azetidin-3-yl]benzamide] | 7.09 | 9.38 | 6.44
5 | O=C(NCc1ccn2ccnc2c1)c1ccc(C2CN(C(=O)c3ccco3)C2)cc1 [Example 639, 4-[1-(furan-2-ylcarbonyl)azetidin-3-yl]-N-(imidazo[1,2-a]pyridin-7-ylmethyl)benzamide] | 7.24 | 9.15 | 6.67
6 | Cn1ccc(C(=O)N2CC(c3ccc(C(=O)NCc4ccn5ccnc5c4)cc3)C2)n1 [Example 642, N-(imidazo[1,2-a]pyridin-7-ylmethyl)-4-{1-[(1-methyl-1H-pyrazol-3-yl)carbonyl]azetidin-3-yl}benzamide] | 7.02 | 9.27 | 6.34
7 | O=C(NCc1ccn2ccnc2c1)c1ccc(C2CN(C(=O)c3ccccc3Cl)C2)cc1 [Example 643, 4-[1-(2-chlorobenzoyl)azetidin-3-yl]-N-(imidazo[1,2-a]pyridin-7-ylmethyl)benzamide] | 8.16 | 9.26 | 7.55
8 | Cc1ccccc1C(=O)N1CC(c2ccc(C(=O)NCc3ccn4ccnc4c3)cc2)C1 [Example 644, N-(imidazo[1,2-a]pyridin-7-ylmethyl)-4-[1-(2-methylbenzoyl)azetidin-3-yl]benzamide] | 8.39 | 9.16 | 7.09
9 | O=C(NCc1ccn2ccnc2c1)c1ccc(C2CN(C(=O)c3cccc(Cl)c3)C2)cc1 [Example 646, 4-[1-(3-chlorobenzoyl)azetidin-3-yl]-N-(imidazo[1,2-a]pyridin-7-ylmethyl)benzamide] | 6.89 | 9.29 | 6.71
10 | O=C(NCc1ccn2ccnc2c1)c1ccc(C2CN(C(=O)c3cc(F)cc(F)c3)C2)cc1 [Example 648, 4-[1-(3,5-difluorobenzoyl)azetidin-3-yl]-N-(imidazo[1,2-a]pyridin-7-ylmethyl)benzamide] | 6.69 | 8.97 | 6.18
11 | O=C(NCc1ccn2ccnc2c1)c1ccc(C2CN(C(=O)c3ccc(F)cc3)C2)cc1 [Example 649, 4-[1-(4-fluorobenzoyl)azetidin-3-yl]-N-(imidazo[1,2-a]pyridin-7-ylmethyl)benzamide] | 7.15 | 9.13 | 6.69
12 | CC(C)CC(=O)N1CC(c2ccc(C(=O)NCc3ccn4ccnc4c3)cc2)C1 [Example 651, N-(imidazo[1,2-a]pyridin-7-ylmethyl)-4-[1-(3-methylbutanoyl)azetidin-3-yl]benzamide] | 7.19 | 9.15 | 6.56
13 | N#Cc1cccc(C(=O)N2CC(c3ccc(C(=O)NCc4ccn5ccnc5c4)cc3)C2)c1 [Example 653, 4-[1-(3-cyanobenzoyl)azetidin-3-yl]-N-(imidazo[1,2-a]pyridin-7-ylmethyl)benzamide] | 6.15 | 9.05 | 6.08
14 | COc1cccc(C(=O)N2CC(c3ccc(C(=O)NCc4ccn5ccnc5c4)cc3)C2)c1 [Example 654, N-(imidazo[1,2-a]pyridin-7-ylmethyl)-4-[1-(3-methoxybenzoyl)azetidin-3-yl]benzamide] | 7.17 | 9.02 | 6.67
15 | Cn1cccc1C(=O)N1CC(c2ccc(C(=O)NCc3ccn4ccnc4c3)cc2)C1 [Example 656, N-(imidazo[1,2-a]pyridin-7-ylmethyl)-4-{1-[(1-methyl-1H-pyrrol-2-yl)carbonyl]azetidin-3-yl}benzamide] | 7.41 | 9.13 | 6.66
16 | O=C(NCc1ccn2ccnc2c1)c1ccc(C2CN(C(=O)c3ccncc3)C2)cc1 [Example 658, N-(imidazo[1,2-a]pyridin-7-ylmethyl)-4-[1-(pyridin-4-ylcarbonyl)azetidin-3-yl]benzamide] | 7.22 | 9.12 | 6.86
17 | O=C(NCc1ccn2ccnc2c1)c1ccc(C2CN(C(=O)c3cccnc3)C2)cc1 [Example 659, N-(imidazo[1,2-a]pyridin-7-ylmethyl)-4-[1-(pyridin-3-ylcarbonyl)azetidin-3-yl]benzamide] | 6.65 | 9.15 | 6.19
18 | O=C(NCc1ccn2ccnc2c1)c1ccc(C2CN(C(=O)c3ccccn3)C2)cc1 [Example 661, N-(imidazo[1,2-a]pyridin-7-ylmethyl)-4-[1-(pyridin-2-ylcarbonyl)azetidin-3-yl]benzamide] | 7.17 | 9.19 | 6.34
19 | O=C(NCc1ccn2ccnc2c1)c1ccc(C2CN(C(=O)c3ccoc3)C2)cc1 [Example 662, 4-[1-(furan-3-ylcarbonyl)azetidin-3-yl]-N-(imidazo[1,2-a]pyridin-7-ylmethyl)benzamide] | 7.03 | 9.17 | 6.50
20 | O=C(NCc1ccn2ccnc2c1)c1ccc(C2CN(C(=O)c3ccncn3)C2)cc1 [Example 663, N-(imidazo[1,2-a]pyridin-7-ylmethyl)-4-[1-(pyrimidin-4-ylcarbonyl)azetidin-3-yl]benzamide] | 7.05 | 8.97 | 6.19

More lines, in order of rising pIC50 (PC3 cells), values ahead:

Row | pIC50 (PC3 cells) | pIC50 (NAMPT) | pIC50 [1] | Structure (SMILES)
21 | 7.15 | 9.16 | 6.55 | O=C(NCc1ccn2ccnc2c1)c1ccc(C2CN(C(=O)C3CCCCC3)C2)cc1 [Example 660, 4-[1-(cyclohexylcarbonyl)azetidin-3-yl]-N-(imidazo[1,2-a]pyridin-7-ylmethyl)benzamide]
22 | 7.16 | 9.00 | 6.64 | COc1ccc(C(=O)N2CC(c3ccc(C(=O)NCc4ccn5ccnc5c4)cc3)C2)cc1 [Example 655, N-(imidazo[1,2-a]pyridin-7-ylmethyl)-4-[1-(4-methoxybenzoyl)azetidin-3-yl]benzamide]
23 | 7.23 | 8.95 | 6.82 | Cc1ccc(C(=O)N2CC(c3ccc(C(=O)NCc4ccn5ccnc5c4)cc3)C2)cc1 [Example 650, N-(imidazo[1,2-a]pyridin-7-ylmethyl)-4-[1-(4-methylbenzoyl)azetidin-3-yl]benzamide]
24 | 7.30 | 9.09 | 6.77 | O=C(NCc1ccn2ccnc2c1)c1ccc(C2CN(C(=O)c3cccc(F)c3)C2)cc1 [Example 640, 4-[1-(3-fluorobenzoyl)azetidin-3-yl]-N-(imidazo[1,2-a]pyridin-7-ylmethyl)benzamide]
25 | 7.44 | 9.23 | 6.63 | O=C(NCc1ccn2ccnc2c1)c1ccc(C2CN(C(=O)CC3CCCCC3)C2)cc1 [Example 657, 4-[1-(cyclohexylacetyl)azetidin-3-yl]-N-(imidazo[1,2-a]pyridin-7-ylmethyl)benzamide]
26 | 7.46 | 8.94 | 6.27 | CC(C)(C)CC(=O)N1CC(c2ccc(C(=O)NCc3ccn4ccnc4c3)cc2)C1 [Example 652, 4-[1-(3,3-dimethylbutanoyl)azetidin-3-yl]-N-(imidazo[1,2-a]pyridin-7-ylmethyl)benzamide]
27 | 7.47 | 9.32 | 7.04 | O=C(NCc1ccn2ccnc2c1)c1ccc(C2CN(C(=O)c3ccc(Cl)cc3)C2)cc1 [Example 645, 4-[1-(4-chlorobenzoyl)azetidin-3-yl]-N-(imidazo[1,2-a]pyridin-7-ylmethyl)benzamide]
28 | 8.00 | 9.16 | 7.13 | O=C(NCc1ccn2ccnc2c1)c1ccc(C2CN(C(=O)c3ccc(F)cc3F)C2)cc1 [Example 641, 4-[1-(2,4-difluorobenzoyl)azetidin-3-yl]-N-(imidazo[1,2-a]pyridin-7-ylmethyl)benzamide]
29 | 8.16 | 9.17 | 6.76 | CCC(C)(C)C(=O)N1CC(c2ccc(C(=O)NCc3ccn4ccnc4c3)cc2)C1 [Example 647, 4-[1-(2,2-dimethylbutanoyl)azetidin-3-yl]-N-(imidazo[1,2-a]pyridin-7-ylmethyl)benzamide]
30 | 8.58 | 9.26 | 7.78 | O=C(NCc1ccn2ccnc2c1)c1ccc(C2CN(C(=O)c3ccccc3F)C2)cc1 [Example 638, 4-[1-(2-fluorobenzoyl)azetidin-3-yl]-N-(imidazo[1,2-a]pyridin-7-ylmethyl)benzamide]
